Tests used:
[1] = system: surinam grass; assay: Test E preemergence herbicide test; type: in vivo, Brachiaria decumbens; design: key: 0 = no effect, 100 = complete control
Excerpt: (§1) Seeds of plant species selected from corn (Zea mays), soybean (Glycine max), velvetleaf (Abutilon theophrasti), lambsquarters (Chenopodium album), wild poinsettia (Euphorbia heterophylla), pigweed, palmer (palmer pigweed, Amaranthus palmeri), waterhemp (common waterhemp, Amaranthus rudis), surinam grass (Brachiaria decumbens), crabgrass, large (large crabgrass, Digitaria sanguinalis), crabgrass, Brazil (Brazilian crabgrass, Digitaria horizontalis), panicum, fall (fall panicum, Panicum dichotomiflorum), foxtail, giant (giant foxtail, Setaria faberii), foxtail, green (green foxtail, Setaria viridis), goosegrass (Eleusine indica), johnsongrass (Sorghum halepense), ragweed (common ragweed, Ambrosia elatior), barnyardgrass (Echinochloa crus-galli), sandbur (southern sandbur, Cenchrus echinatus), arrowleaf […] rhombifolia), ryegrass, Italian (Italian ryegrass, Lolium multiflorum), dayflower, VA (Virginia dayflower, Commelina virginica), field bindweed (Convolvulus arvensis), morningglory (Ipomoea coccinea), nightshade (eastern black nightshade, Solanum ptycanthum), kochia (Kochia scoparia), nutsedge, yellow (yellow nutsedge, Cyperus esculentus), cocklebur (common cocklebur, Xanthium strumarium), smartweed (ladysthumb smartweed, Polygonum Persicaria) and beggarticks (hairy beggarticks, Bidens pilosa), were planted into a silt loam soil and treated preemergence with test chemicals formulated in a non-phytotoxic solvent mixture which included a surfactant. Treated plants and controls were maintained in a greenhouse for 21 days, after which time all species were compared to controls and visually evaluated. Plant response ratings, summarized in Table E, are based on a scale of 0 to 100 where 0 is no effect and 100 is complete control. A dash (-) response means no test result.

[2] = system: nutsedge, yellow; assay: Test E preemergence herbicide test; type: in vivo, Cyperus esculentus; design: key: 0 = no effect, 100 = complete control
Excerpt: as §1

[3] = system: crabgrass, Brazil; assay: Test E preemergence herbicide test; type: in vivo, Digitaria horizontalis; design: key: 0 = no effect, 100 = complete control
Excerpt: as §1

[4] = system: mustard, wild; assay: Test D pre-/postemergence herbicide test; type: in vivo, Sinapis arvensis; settings: Preemergence; for Plant response rating, Mustard, Wild: scale 0 to 100 (0 no effect, 100 complete control)
Summary of the method: (§2)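 Greenhouse pre- and postemergence screen with surfactant-containing non-phytotoxic solvent formulations. Silt loam soil served for preemergence application, and peat/vermiculite medium for postemergence application at 2–18 cm height. Visual 0–100 control ratings versus controls were recorded 7 to 21 days later.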

[5] = system: bromegrass, downy; assay: Test D pre-/postemergence herbicide test; type: in vivo, Bromus tectorum; settings: Preemergence; for Plant response rating, Bromegrass, Downy: scale 0 to 100 (0 no effect, 100 complete control)
Summary of the method: as §2

[6] = system: blackgrass; assay: Test D pre-/postemergence herbicide test; type: in vivo, Alopecurus myosuroides; settings: Preemergence; for Plant response rating, Blackgrass: scale 0 to 100 (0 no effect, 100 complete control)
Summary of the method: as §2

[7] = system: bluegrass; assay: Test D pre-/postemergence herbicide test; type: in vivo, Poa annua; settings: Preemergence; for Plant response rating, Bluegrass: scale 0 to 100 (0 no effect, 100 complete control)
Summary of the method: as §2

[8] = system: galium; assay: Test D pre-/postemergence herbicide test; type: in vivo, Galium aparine; settings: Preemergence; for Plant response rating, Galium: scale 0 to 100 (0 no effect, 100 complete control)
Summary of the method: as §2

[9] = system: foxtail, green; assay: Test D pre-/postemergence herbicide test; type: in vivo, Setaria viridis; settings: Preemergence; for Plant response rating, Foxtail, Green: scale 0 to 100 (0 no effect, 100 complete control)
Summary of the method: as §2

[10] = system: deadnettle; assay: Test D pre-/postemergence herbicide test; type: in vivo, Lamium amplexicaule; settings: Preemergence; for Plant response rating, Deadnettle: scale 0 to 100 (0 no effect, 100 complete control)
Summary of the method: as §2

[11] = system: kochia; assay: Test D pre-/postemergence herbicide test; type: in vivo, Kochia scoparia; settings: Preemergence; for Plant response rating, Kochia: scale 0 to 100 (0 no effect, 100 complete control)
Summary of the method: as §2

O=C1NCC(c2ccc(F)cc2)C1C(=O)Nc1ccccc1F (racemic) [Compound 16]
Plant response rating, Surinam Grass ([1]; 16 g ai/ha): 0 | Plant response rating, Surinam Grass ([1]; 31 g ai/ha): 0 | Plant response rating, Surinam Grass ([1]; 62 g ai/ha): 20 | Plant response rating, Surinam Grass ([1]; 125 g ai/ha): 35 | Plant response rating, Surinam Grass ([1]; 250 g ai/ha): 60 | Plant response rating, Nutsedge, Yellow ([2]; 16 g ai/ha): 0 | Plant response rating, Nutsedge, Yellow ([2]; 31 g ai/ha): 0 | Plant response rating, Nutsedge, Yellow ([2]; 62 g ai/ha): 0 | Plant response rating, Nutsedge, Yellow ([2]; 125 g ai/ha): 0 | Plant response rating, Nutsedge, Yellow ([2]; 250 g ai/ha): 0 | Plant response rating, Crabgrass, Brazil ([3]; 16 g ai/ha): 25 | Plant response rating, Crabgrass, Brazil ([3]; 31 g ai/ha): 25 | Plant response rating, Crabgrass, Brazil ([3]; 62 g ai/ha): 65 | Plant response rating, Crabgrass, Brazil ([3]; 125 g ai/ha): 80 | Plant response rating, Crabgrass, Brazil ([3]; 250 g ai/ha): 98

O=C1NCC(c2cccc(Br)c2)C1C(=O)Nc1ccccc1F (centres unmarked) [Compound 66]
Plant response rating, Surinam Grass ([1]; 16 g ai/ha): 0 | Plant response rating, Surinam Grass ([1]; 31 g ai/ha): 0 | Plant response rating, Surinam Grass ([1]; 62 g ai/ha): 0 | Plant response rating, Surinam Grass ([1]; 125 g ai/ha): 0 | Plant response rating, Surinam Grass ([1]; 250 g ai/ha): 35 | Plant response rating, Nutsedge, Yellow ([2]; 16 g ai/ha): 0 | Plant response rating, Nutsedge, Yellow ([2]; 31 g ai/ha): 0 | Plant response rating, Nutsedge, Yellow ([2]; 62 g ai/ha): 0 | Plant response rating, Nutsedge, Yellow ([2]; 125 g ai/ha): 0 | Plant response rating, Nutsedge, Yellow ([2]; 250 g ai/ha): 0 | Plant response rating, Crabgrass, Brazil ([3]; 16 g ai/ha): 85 | Plant response rating, Crabgrass, Brazil ([3]; 31 g ai/ha): 85 | Plant response rating, Crabgrass, Brazil ([3]; 62 g ai/ha): 95 | Plant response rating, Crabgrass, Brazil ([3]; 125 g ai/ha): 98 | Plant response rating, Crabgrass, Brazil ([3]; 250 g ai/ha): 98

O=C1NCC(c2ccc(C(F)(F)F)cc2)C1C(=O)Nc1ccc(F)c(F)c1F (centres unmarked) [Compound 232]
Plant response rating, Surinam Grass ([1]; 31 g ai/ha): 40 | Plant response rating, Surinam Grass ([1]; 62 g ai/ha): 50 | Plant response rating, Surinam Grass ([1]; 125 g ai/ha): 70 | Plant response rating, Surinam Grass ([1]; 250 g ai/ha): 98 | Plant response rating, Nutsedge, Yellow ([2]; 31 g ai/ha): 0 | Plant response rating, Nutsedge, Yellow ([2]; 62 g ai/ha): 0 | Plant response rating, Nutsedge, Yellow ([2]; 125 g ai/ha): 0 | Plant response rating, Nutsedge, Yellow ([2]; 250 g ai/ha): 0 | Plant response rating, Crabgrass, Brazil ([3]; 31 g ai/ha): 95 | Plant response rating, Crabgrass, Brazil ([3]; 62 g ai/ha): 98 | Plant response rating, Crabgrass, Brazil ([3]; 125 g ai/ha): 98 | Plant response rating, Crabgrass, Brazil ([3]; 250 g ai/ha): 98

O=C1NCC(c2cccc(C(F)(F)F)c2)C1C(=O)Nc1cccc(F)c1F (centres unmarked) [Compound 241]
Plant response rating, Mustard, Wild ([4]; 31 g ai/ha): 10 | Plant response rating, Mustard, Wild ([4]; 62 g ai/ha): 15 | Plant response rating, Mustard, Wild ([4]; 125 g ai/ha): 15 | Plant response rating ([4]; 250 g ai/ha, Mustard, Wild, scale 0 to 100): 25 | Plant response rating, Bromegrass, Downy ([5]; 31 g ai/ha): 0 | Plant response rating, Bromegrass, Downy ([5]; 62 g ai/ha): 15 | Plant response rating, Bromegrass, Downy ([5]; 125 g ai/ha): 15 | Plant response rating ([5]; 250 g ai/ha, Bromegrass, Downy, scale 0 to 100): 60 | Plant response rating, Blackgrass ([6]; 31 g ai/ha): 20 | Plant response rating, Blackgrass ([6]; 62 g ai/ha): 55 | Plant response rating, Blackgrass ([6]; 125 g ai/ha): 50 | Plant response rating ([6]; 250 g ai/ha, Blackgrass, scale 0 to 100): 75 | Plant response rating, Bluegrass ([7]; 31 g ai/ha): 15 | Plant response rating, Bluegrass ([7]; 62 g ai/ha): 15 | Plant response rating, Bluegrass ([7]; 125 g ai/ha): 45 | Plant response rating ([7]; 250 g ai/ha, Bluegrass, scale 0 to 100): 70 | Plant response rating, Galium ([8]; 31 g ai/ha): 20 | Plant response rating, Galium ([8]; 62 g ai/ha): 25 | Plant response rating, Galium ([8]; 125 g ai/ha): 35 | Plant response rating ([8]; 250 g ai/ha, Galium, scale 0 to 100): 80 | Plant response rating, Foxtail, Green ([9]; 31 g ai/ha): 35 | Plant response rating, Foxtail, Green ([9]; 62 g ai/ha): 90 | Plant response rating, Foxtail, Green ([9]; 125 g ai/ha): 90 | Plant response rating ([9]; 250 g ai/ha, Foxtail, Green, scale 0 to 100): 90 | Plant response rating, Deadnettle ([10]; 31 g ai/ha): 35 | Plant response rating, Deadnettle ([10]; 62 g ai/ha): 30 | Plant response rating, Deadnettle ([10]; 125 g ai/ha): 35 | Plant response rating ([10]; 250 g ai/ha, Deadnettle, scale 0 to 100): 45 | Plant response rating, Kochia ([11]; 31 g ai/ha): 20 | Plant response rating, Kochia ([11]; 62 g ai/ha): 30 | Plant response rating, Kochia ([11]; 125 g ai/ha): 80 | Plant response rating ([11]; 250 g ai/ha, Kochia, scale 0 to 100): 70

Source: US10294202B2, “Pyrrolidinones as herbicides” (FMC Corporation, priority 2013, dated 2019)
